Reference: PMC10178848, “Modulating fast skeletal muscle contraction protects skeletal muscle in animal models of Duchenne muscular dystrophy” (The Journal of Clinical Investigation, 2023)
Read-outs that look alike come from different tables or passages of the source.

Test system: GRMD plasma proteins
Assay type: in vivo, dog
[1] = EDG-5506 treatment to GRMD baseline, Increased in GRMD

O=c1ccc(-c2cnc(OCC(F)(F)F)nc2)nn1Cc1cncc(F)c1 [EDG-5506]
Macrophage-stimulating protein receptor (MST1R): Change from GRMD Baseline (fraction) [1]: -0.0588 fraction | Matrilin-3 (MATN3): Change from GRMD Baseline (fraction) [1]: -0.1231 fraction | Matrilysin (MMP7): Change from GRMD Baseline (fraction) [1]: -0.0308 fraction | N-terminal pro-BNP (NPPB): Change from GRMD Baseline (fraction) [1]: -0.0602 fraction | NKG2D ligand 3 (ULBP3): Change from GRMD Baseline (fraction) [1]: -0.0822 fraction | Neural cell adhesion molecule L1-like protein (CHL1): Change from GRMD Baseline (fraction) [1]: -0.0329 fraction | Neurexophilin-1 (NXPH1): Change from GRMD Baseline (fraction) [1]: -0.0271 fraction | OX-2 membrane glycoprotein (CD200): Change from GRMD Baseline (fraction) [1]: -0.0611 fraction | Persephin (PSPN): Change from GRMD Baseline (fraction) [1]: -0.013 fraction | Phosphatidylinositol 4,5-bisphosphate 3-kinase catalytic subunit gamma isoform (PIK3CG): Change from GRMD Baseline (fraction) [1]: -0.1006 fraction | Pituitary adenylate cyclase-activating polypeptide 27 (ADCYAP1): Change from GRMD Baseline (fraction) [1]: 0.1436 fraction | Platelet factor 4 (PF4): Change from GRMD Baseline (fraction) [1]: -0.1659 fraction | Platelet glycoprotein VI (GP6): Change from GRMD Baseline (fraction) [1]: 0.0008 fraction | Prolactin (PRL): Change from GRMD Baseline (fraction) [1]: -0.0751 fraction | Prolactin receptor (PRLR): Change from GRMD Baseline (fraction) [1]: -0.064 fraction | Proteasome subunit alpha type-6 (PSMA6): Change from GRMD Baseline (fraction) [1]: -0.0773 fraction | Protein E7_HPV18 (Human-virus): Change from GRMD Baseline (fraction) [1]: -0.1102 fraction | Proto-oncogene tyrosine-protein kinase receptor Ret (RET): Change from GRMD Baseline (fraction) [1]: -0.0388 fraction | RNA-binding protein 39 (RBM39): Change from GRMD Baseline (fraction) [1]: -0.0705 fraction | Ras GTPase-activating protein 1 (RASA1): Change from GRMD Baseline (fraction) [1]: -0.1536 fraction | Ribosome maturation protein SBDS (SBDS): Change from GRMD Baseline (fraction) [1]: -0.2649 fraction | SPARC-related modular calcium-binding protein 1 (SMOC1): Change from GRMD Baseline (fraction) [1]: -0.0553 fraction | Secreted and transmembrane protein 1 (SECTM1): Change from GRMD Baseline (fraction) [1]: -0.0267 fraction | Serine/threonine-protein kinase PAK 3 (PAK3): Change from GRMD Baseline (fraction) [1]: -0.1036 fraction | Serine/threonine-protein kinase PAK 7 (PAK7): Change from GRMD Baseline (fraction) [1]: -0.037 fraction | Serine/threonine-protein kinase pim-1 (PIM1): Change from GRMD Baseline (fraction) [1]: -0.0646 fraction | Serum amyloid A-1 protein (SAA1): Change from GRMD Baseline (fraction) [1]: -0.1842 fraction | Sialic acid-binding Ig-like lectin 7 (SIGLEC7): Change from GRMD Baseline (fraction) [1]: -0.0326 fraction | Small ubiquitin-related modifier 3 (SUMO3): Change from GRMD Baseline (fraction) [1]: -0.2515 fraction | Stromelysin-1 (MMP3): Change from GRMD Baseline (fraction) [1]: 0.0153 fraction | Stromelysin-2 (MMP10): Change from GRMD Baseline (fraction) [1]: -0.0419 fraction | Synaptosomal-associated protein 25 (SNAP25): Change from GRMD Baseline (fraction) [1]: 0.0795 fraction | T-cell surface glycoprotein CD4 (CD4): Change from GRMD Baseline (fraction) [1]: -0.0326 fraction | T-lymphocyte activation antigen CD86 (CD86): Change from GRMD Baseline (fraction) [1]: -0.0169 fraction | TATA-box-binding protein (TBP): Change from GRMD Baseline (fraction) [1]: -0.0838 fraction | Thyroxine-binding globulin (SERPINA7): Change from GRMD Baseline (fraction) [1]: 0.0123 fraction | Transcription factor IIIB 90 kDa subunit (BRF1): Change from GRMD Baseline (fraction) [1]: -0.0779 fraction | Tumor necrosis factor ligand superfamily member 18 (TNFSF18): Change from GRMD Baseline (fraction) [1]: -0.0886 fraction | Tumor necrosis factor receptor superfamily member 13B (TNFRSF13B): Change from GRMD Baseline (fraction) [1]: -0.1006 fraction | Tumor necrosis factor receptor superfamily member 13C (TNFRSF13C): Change from GRMD Baseline (fraction) [1]: 0.0816 fraction | Tumor-associated calcium signal transducer 2 (TACSTD2): Change from GRMD Baseline (fraction) [1]: -0.0508 fraction | Ubiquitin-conjugating enzyme E2 G2 (UBE2G2): Change from GRMD Baseline (fraction) [1]: 0.0044 fraction | WNT1-inducible-signaling pathway protein 1 (WISP1): Change from GRMD Baseline (fraction) [1]: -0.2187 fraction | WNT1-inducible-signaling pathway protein 3 (WISP3): Change from GRMD Baseline (fraction) [1]: -0.0425 fraction | alpha-2-macroglobulin receptor-associated protein (LRPAP1): Change from GRMD Baseline (fraction) [1]: -0.1071 fraction | cGMP-dependent 3',5'-cyclic phosphodiesterase (PDE2A): Change from GRMD Baseline (fraction) [1]: -0.1496 fraction | Change from GRMD Baseline (fraction) (Endothelial cell-specific molecule 1 (ESM1), EDG-5506 treatment to GRMD baseline): -0.0233 fraction | Change from GRMD Baseline (fraction) (Endothelial cell-specific molecule 1 (ESM1), Post-Treatment to GRMD baseline): -0.0289 fraction | Change from GRMD Baseline (fraction) (Ephrin-B3 (EFNB3), EDG-5506 treatment to GRMD baseline): 0.1026 fraction | Change from GRMD Baseline (fraction) (Ephrin-B3 (EFNB3), Post-Treatment to GRMD baseline): -0.0272 fraction | Change from GRMD Baseline (fraction) (Eukaryotic translation initiation factor 4E-binding protein 2 (EIF4EBP2), EDG-5506 treatment to GRMD baseline): 0.16 fraction | Change from GRMD Baseline (fraction) (Eukaryotic translation initiation factor 4E-binding protein 2 (EIF4EBP2), Post-Treatment to GRMD baseline): 0.0377 fraction | common DMD plasma proteomic signature (GRMD plasma, Somascan): significantly reversed this common DMD signature | Change from GRMD Baseline (fraction) (Glutathione S-transferase A3 (GSTA3), EDG-5506 treatment to GRMD baseline): 0.0601 fraction | Change from GRMD Baseline (fraction) (Glutathione S-transferase A3 (GSTA3), Post-Treatment to GRMD baseline): 1.476 fraction | Change from GRMD Baseline (fraction) (Heparan-sulfate 6-O-sulfotransferase 1 (HS6ST1), EDG-5506 treatment to GRMD baseline): 0.0701 fraction | Change from GRMD Baseline (fraction) (Heparan-sulfate 6-O-sulfotransferase 1 (HS6ST1), Post-Treatment to GRMD baseline): -0.1313 fraction | Change from GRMD Baseline (fraction) (Histone H3.1 (HIST1H3A), EDG-5506 treatment to GRMD baseline): 0.1658 fraction | Change from GRMD Baseline (fraction) (Histone H3.1 (HIST1H3A), Post-Treatment to GRMD baseline): 0.0723 fraction | Change from GRMD Baseline (fraction) (Human Chorionic Gonadotropin (CGA CGB), EDG-5506 treatment to GRMD baseline): 0.1653 fraction
